Measurements: patent publication US20250176599A1, “FLAVOR COMPOSITION AND FOOD AND BEVERAGE” (TAKASAGO INTERNATIONAL CORPORATION, priority 2021, published 2025)

How the values were obtained:
[1] = Sensory evaluation of aqueous solution IV containing 1,5-octadien-3-one 100 ppt: off-flavor intensity and masking component intensity; conditions: aqueous solution IV, average panel score
Procedure: (§1) In ion-exchanged water, each degradation component was added to achieve the concentrations listed in Table 1, and aqueous solutions I to VI containing these degradation components were prepared.
(§2) For the aforementioned aqueous solutions containing degradation components, nootkatone was added at the concentrations listed in Table 2 to confirm the intensity of the off-flavor (masking effect) in each sample and the intensity of the masking component itself (the impact on the flavor of the food and/or beverage itself).
(§3) The test was conducted as follows. Eight experienced panelists were selected to conduct a sensory evaluation. The intensity of the off-flavor of the aqueous solution containing the degradation components derived from unsaturated fatty acids, without added masking components, was set as “Evaluation: 4.” The ion-exchanged water free of any degradation components was set as “Evaluation: 0.” The intensity of the off-flavor (masking effect) of each sample was then relatively evaluated according to the following evaluation criteria.
(§4) • Off-flavor is strongly sensed: 4 points • Off-flavor is sensed: 3 points • Off-flavor is slightly sensed: 2 points • Off-flavor is barely sensed: 1 point • Off-flavor is not sensed at all: 0 points
(§5) Also, the intensity of the masking components (impact on the flavor of the food and/or beverage itself) was absolutely evaluated according to the following evaluation criteria.
(§6) • Masking component is strongly sensed: 4 points • Masking component is sensed: 3 points • Masking component is slightly sensed: 2 points • Masking component is barely sensed: 1 point • Masking component is not sensed at all: 0 points

[2] = Overall conclusion of the sensory evaluation across aqueous solutions I to VI
Procedure: as §1, §2, §3, §4, §5, §6

[3] = Sensory evaluation of aqueous solution VI containing 1,5-octadien-3-ol 10 ppb: off-flavor intensity and masking component intensity; conditions: aqueous solution VI, average panel score
Procedure: as §1, §2, §3, §4, §5, §6

[4] = Sensory evaluation of aqueous solution I containing (E)-2-nonenal 1 ppb: off-flavor intensity and masking component intensity; conditions: average panel score
Procedure: as §1, §2, §3, §4, §5, §6

[5] = Sensory evaluation of aqueous solution II containing (E)-2-octenal 10 ppb: off-flavor intensity and masking component intensity; conditions: average panel score
Procedure: as §1, §2, §3, §4, §5, §6

[6] = Sensory evaluation of aqueous solution V containing 1-octen-3-ol 10 ppb: off-flavor intensity and masking component intensity; conditions: average panel score
Procedure: as §1, §2, §3, §4, §5, §6

[7] = Sensory evaluation of aqueous solution III containing 1-octen-3-one 1 ppb: off-flavor intensity and masking component intensity; conditions: average panel score
Procedure: as §1, §2, §3, §4, §5, §6

CC1CCC(C(C)C)C(OCC(O)CO)C1 (centres unmarked) [3-menthoxypropan-1,2-diol]
Masking Component Intensity ([1]; 1 ppb added): 0.0 | Off-Flavor Intensity ([1]; 1 ppb added): 3.8 | Masking Component Intensity ([1]; 1 ppm added): 1.0 | Off-Flavor Intensity ([1]; 1 ppm added): 3.3 | Masking Component Intensity ([1]; 10 ppb added): 0.1 | Off-Flavor Intensity ([1]; 10 ppb added): 3.5 | Masking Component Intensity ([1]; 10 ppm added): 1.5 | Off-Flavor Intensity ([1]; 10 ppm added): 2.9 | Masking Component Intensity ([1]; 50 ppm added): 2.4 | Off-Flavor Intensity ([1]; 50 ppm added): 2.5 | Masking Component Intensity ([1]; 100 ppb added): 0.9 | Off-Flavor Intensity ([1]; 100 ppb added): 3.5 | Masking Component Intensity ([1]; 100 ppm added): 3.0 | Off-Flavor Intensity ([1]; 100 ppm added): 2.1 | Masking Component Intensity ([1]; 100 ppt added): 0.0 | Off-Flavor Intensity ([1]; 100 ppt added): 3.9 | concentration that masks the off-flavor and does not affect the flavor of the food and/or beverage itself, lower limit [2]: ≥ 100 ppt | concentration that masks the off-flavor and does not affect the flavor of the food and/or beverage itself, upper limit [2]: ≤ 100 ppm | Masking Component Intensity ([3]; 1 ppb added): 0.1 | Off-Flavor Intensity ([3]; 1 ppb added): 3.0 | Masking Component Intensity ([3]; 1 ppm added): 0.8 | Off-Flavor Intensity ([3]; 1 ppm added): 2.6 | Masking Component Intensity ([3]; 10 ppb added): 0.4 | Off-Flavor Intensity ([3]; 10 ppb added): 3.0 | Masking Component Intensity ([3]; 10 ppm added): 2.0 | Off-Flavor Intensity ([3]; 10 ppm added): 2.3 | Masking Component Intensity ([3]; 50 ppm added): 2.9 | Off-Flavor Intensity ([3]; 50 ppm added): 1.9 | Masking Component Intensity ([3]; 100 ppb added): 0.4 | Off-Flavor Intensity ([3]; 100 ppb added): 3.0 | Masking Component Intensity ([3]; 100 ppm added): 3.5 | Off-Flavor Intensity ([3]; 100 ppm added): 1.3 | Masking Component Intensity ([3]; 100 ppt added): 0.0 | Off-Flavor Intensity ([3]; 100 ppt added): 3.0 | Masking Component Intensity ([4]; 1 ppb added): 0.3 | Off-Flavor Intensity ([4]; 1 ppb added): 3.4 | Masking Component Intensity ([4]; 1 ppm added): 1.1 | Off-Flavor Intensity ([4]; 1 ppm added): 2.9 | Masking Component Intensity ([4]; 10 ppb added): 0.6 | Off-Flavor Intensity ([4]; 10 ppb added): 3.1 | Masking Component Intensity ([4]; 10 ppm added): 1.9 | Off-Flavor Intensity ([4]; 10 ppm added): 2.6 | Masking Component Intensity ([4]; 50 ppm added): 2.5 | Off-Flavor Intensity ([4]; 50 ppm added): 1.9 | Masking Component Intensity ([4]; 100 ppb added): 0.8 | Off-Flavor Intensity ([4]; 100 ppb added): 3.1 | Masking Component Intensity ([4]; 100 ppm added): 3.3 | Off-Flavor Intensity ([4]; 100 ppm added): 1.8 | Masking Component Intensity ([4]; 100 ppt added): 0.3 | Off-Flavor Intensity ([4]; 100 ppt added): 3.4 | Masking Component Intensity ([5]; 1 ppb added): 0.4 | Off-Flavor Intensity ([5]; 1 ppb added): 3.0 | Masking Component Intensity ([5]; 1 ppm added): 1.4 | Off-Flavor Intensity ([5]; 1 ppm added): 2.3 | Masking Component Intensity ([5]; 10 ppb added): 0.5 | Off-Flavor Intensity ([5]; 10 ppb added): 3.0 | Masking Component Intensity ([5]; 10 ppm added): 2.0 | Off-Flavor Intensity ([5]; 10 ppm added): 1.8 | Masking Component Intensity ([5]; 50 ppm added): 3.1 | Off-Flavor Intensity ([5]; 50 ppm added): 1.5 | Masking Component Intensity ([5]; 100 ppb added): 1.0 | Off-Flavor Intensity ([5]; 100 ppb added): 2.8 | Masking Component Intensity ([5]; 100 ppm added): 4.0 | Off-Flavor Intensity ([5]; 100 ppm added): 1.1 | Masking Component Intensity ([5]; 100 ppt added): 0.4 | Off-Flavor Intensity ([5]; 100 ppt added): 3.1 | Masking Component Intensity ([6]; 1 ppb added): 0.3 | Off-Flavor Intensity ([6]; 1 ppb added): 3.1 | Masking Component Intensity ([6]; 1 ppm added): 1.4 | Off-Flavor Intensity ([6]; 1 ppm added): 2.6 | Masking Component Intensity ([6]; 10 ppb added): 0.6 | Off-Flavor Intensity ([6]; 10 ppb added): 2.6 | Masking Component Intensity ([6]; 10 ppm added): 2.1 | Off-Flavor Intensity ([6]; 10 ppm added): 2.0 | Masking Component Intensity ([6]; 50 ppm added): 2.0 | Off-Flavor Intensity ([6]; 50 ppm added): 1.6 | Masking Component Intensity ([6]; 100 ppb added): 1.0 | Off-Flavor Intensity ([6]; 100 ppb added): 2.5 | Masking Component Intensity ([6]; 100 ppm added): 3.8 | Off-Flavor Intensity ([6]; 100 ppm added): 1.4 | Masking Component Intensity ([6]; 100 ppt added): 0.3 | Off-Flavor Intensity ([6]; 100 ppt added): 3.3 | Masking Component Intensity ([7]; 1 ppb added): 0.5 | Off-Flavor Intensity ([7]; 1 ppb added): 3.3 | Masking Component Intensity ([7]; 1 ppm added): 1.5 | Off-Flavor Intensity ([7]; 1 ppm added): 2.5 | Masking Component Intensity ([7]; 10 ppb added): 0.6 | Off-Flavor Intensity ([7]; 10 ppb added): 2.9 | Masking Component Intensity ([7]; 10 ppm added): 2.1 | Off-Flavor Intensity ([7]; 10 ppm added): 2.3 | Masking Component Intensity ([7]; 50 ppm added): 3.0 | Off-Flavor Intensity ([7]; 50 ppm added): 1.9 | Masking Component Intensity ([7]; 100 ppb added): 1.1 | Off-Flavor Intensity ([7]; 100 ppb added): 2.8 | Masking Component Intensity ([7]; 100 ppm added): 3.8 | Off-Flavor Intensity ([7]; 100 ppm added): 1.6 | Masking Component Intensity ([7]; 100 ppt added): 0.1 | Off-Flavor Intensity ([7]; 100 ppt added): 3.3
